Measured values: ChEMBL document CHEMBL3885881, “DrugMatrix”

Species: Rattus norvegicus
Experiment: DrugMatrix - Regimen: Daily Repeat
Format: toxicity, organism-based, Sprague-Dawley
Design: regimen Daily Repeat, gender Male, age 6-8 weeks
Conditions: in vivo, po, route oral GAVAGE, vehicle .5 % CMC; for ABSOLUTE BASOPHIL / BASOPHIL / EOSINOPHIL / ERYTHROCYTE COUNT / HEMATOCRIT / HEMOGLOBIN / LEUKOCYTE COUNT / LYMPHOCYTE / MEAN CORPUSCULAR HEMOGLOBIN / MEAN CORPUSCULAR HEMOGLOBIN CONCENTRATION / MEAN CORPUSCULAR VOLUME / MONOCYTE / NEUTROPHIL / PLATELET COUNT: tissue Blood; for ALANINE AMINOTRANSFERASE / ALBUMIN / ALKALINE PHOSPHATASE / ASPARTATE AMINOTRANSFERASE / BLOOD UREA NITROGEN / CHLORIDE / CHOLESTEROL / CREATINE PHOSPHOKINASE / CREATININE / GLUCOSE / PHOSPHORUS / POTASSIUM / SODIUM / TOTAL BILIRUBIN / TOTAL PROTEIN: tissue Plasma
[1] = 0 mg/kg, 72 h, dose level Control, time 3 day
[2] = 0 mg/kg, 120 h, dose level Control, time 5 day
[3] = 100 mg/kg, 72 h, dose level Low, time 3 day
[4] = 100 mg/kg, 120 h, dose level Low, time 5 day
[5] = 390 mg/kg, 72 h, dose level High, time 3 day
[6] = 390 mg/kg, 120 h, dose level High, time 5 day

**Q.** What does the source list for CC[C@]1(O)CC[C@H]2[C@@H]3CCC4=CCCC[C@@H]4[C@H]3CC[C@@]21C?
**A.** ABSOLUTE BASOPHIL [1]: 16.7 cells/µL; BASOPHIL [1]: 0.17%; EOSINOPHIL [1]: 0.62%; ERYTHROCYTE COUNT [1]: 6.55 x10E6/uL; HEMATOCRIT [1]: 42%; HEMOGLOBIN [1]: 13.48 G/DL; LEUKOCYTE COUNT [1]: 8.79 x10E3/uL; LYMPHOCYTE [1]: 76.98%; MEAN CORPUSCULAR HEMOGLOBIN [1]: 20.57 pg; MEAN CORPUSCULAR HEMOGLOBIN CONCENTRATION [1]: 32.08 G/DL; MEAN CORPUSCULAR VOLUME [1]: 64.1 fL; MONOCYTE [1]: 2.12%; NEUTROPHIL [1]: 19%; PLATELET COUNT [1]: 1432.17 x10E3/uL; ALANINE AMINOTRANSFERASE [1]: 42.83 u/L; ALBUMIN [1]: 3.63 G/DL; ALKALINE PHOSPHATASE [1]: 328.5 u/L; ASPARTATE AMINOTRANSFERASE [1]: 78.33 u/L; BLOOD UREA NITROGEN [1]: 14.5 mg/dL; CHLORIDE [1]: 104.5 MEQ/L; CHOLESTEROL [1]: 78.67 mg/dL; CREATINE PHOSPHOKINASE [1]: 282.33 u/L; CREATININE [1]: 0.25 mg/dL; GLUCOSE [1]: 173.67 mg/dL; PHOSPHORUS [1]: 12.83 mg/dL; POTASSIUM [1]: 6.7 MEQ/L; SODIUM [1]: 145.83 MEQ/L; TOTAL BILIRUBIN [1]: 0.4 mg/dL; TOTAL PROTEIN [1]: 5.93 G/DL; ABSOLUTE BASOPHIL [2]: 28 cells/µL; BASOPHIL [2]: 0.26%; EOSINOPHIL [2]: 0.44%; ERYTHROCYTE COUNT [2]: 6.99 x10E6/uL; HEMATOCRIT [2]: 45.12%; HEMOGLOBIN [2]: 14.26 G/DL; LEUKOCYTE COUNT [2]: 9.42 x10E3/uL; LYMPHOCYTE [2]: 79.92%; MEAN CORPUSCULAR HEMOGLOBIN [2]: 20.44 pg; MEAN CORPUSCULAR HEMOGLOBIN CONCENTRATION [2]: 31.62 G/DL; MEAN CORPUSCULAR VOLUME [2]: 64.6 fL; MONOCYTE [2]: 2.2%; NEUTROPHIL [2]: 16.14%; PLATELET COUNT [2]: 1062.2 x10E3/uL; ALANINE AMINOTRANSFERASE [2]: 44 u/L; ALBUMIN [2]: 3.73 G/DL; ALKALINE PHOSPHATASE [2]: 342.6 u/L; ASPARTATE AMINOTRANSFERASE [2]: 74.17 u/L; BLOOD UREA NITROGEN [2]: 13 mg/dL; CHLORIDE [2]: 103 MEQ/L; CHOLESTEROL [2]: 72.83 mg/dL; CREATINE PHOSPHOKINASE [2]: 184.67 u/L; CREATININE [2]: 0.47 mg/dL; GLUCOSE [2]: 168.17 mg/dL; PHOSPHORUS [2]: 12.27 mg/dL; POTASSIUM [2]: 6.98 MEQ/L; SODIUM [2]: 147 MEQ/L; TOTAL BILIRUBIN [2]: 0.65 mg/dL; TOTAL PROTEIN [2]: 6.23 G/DL; ABSOLUTE BASOPHIL [3]: 23.3 cells/µL; BASOPHIL [3]: 0.23%; EOSINOPHIL [3]: 0.63%; ERYTHROCYTE COUNT [3]: 7.14 x10E6/uL; HEMATOCRIT [3]: 43.57%; HEMOGLOBIN [3]: 14.03 G/DL; LEUKOCYTE COUNT [3]: 12.51 x10E3/uL; LYMPHOCYTE [3]: 79.1%; MEAN CORPUSCULAR HEMOGLOBIN [3]: 19.63 pg; MEAN CORPUSCULAR HEMOGLOBIN CONCENTRATION [3]: 32.2 G/DL; MEAN CORPUSCULAR VOLUME [3]: 61 fL; MONOCYTE [3]: 2.57%; NEUTROPHIL [3]: 16.13%; PLATELET COUNT [3]: 1395 x10E3/uL; ALANINE AMINOTRANSFERASE [3]: 38 u/L; ALBUMIN [3]: 3.67 G/DL; ALKALINE PHOSPHATASE [3]: 426 u/L; ASPARTATE AMINOTRANSFERASE [3]: 66.33 u/L; BLOOD UREA NITROGEN [3]: 10.33 mg/dL; CHLORIDE [3]: 103.33 MEQ/L; CHOLESTEROL [3]: 51 mg/dL; CREATINE PHOSPHOKINASE [3]: 235.33 u/L; CREATININE [3]: 0.33 mg/dL; GLUCOSE [3]: 164.33 mg/dL; PHOSPHORUS [3]: 12.4 mg/dL; POTASSIUM [3]: 6.67 MEQ/L; SODIUM [3]: 145 MEQ/L; TOTAL BILIRUBIN [3]: 0.47 mg/dL; TOTAL PROTEIN [3]: 6 G/DL; ABSOLUTE BASOPHIL [4]: 56.7 cells/µL; BASOPHIL [4]: 0.47%; EOSINOPHIL [4]: 0.23%; ERYTHROCYTE COUNT [4]: 6.95 x10E6/uL; HEMATOCRIT [4]: 44.83%; HEMOGLOBIN [4]: 14.17 G/DL; LEUKOCYTE COUNT [4]: 12.16 x10E3/uL; LYMPHOCYTE [4]: 86.2%; MEAN CORPUSCULAR HEMOGLOBIN [4]: 20.37 pg; MEAN CORPUSCULAR HEMOGLOBIN CONCENTRATION [4]: 31.6 G/DL; MEAN CORPUSCULAR VOLUME [4]: 64.47 fL; MONOCYTE [4]: 2%; NEUTROPHIL [4]: 10.03%; PLATELET COUNT [4]: 1290.67 x10E3/uL; ALANINE AMINOTRANSFERASE [4]: 38.67 u/L; ALBUMIN [4]: 3.67 G/DL; ALKALINE PHOSPHATASE [4]: 360 u/L; ASPARTATE AMINOTRANSFERASE [4]: 55 u/L; BLOOD UREA NITROGEN [4]: 10.67 mg/dL; CHLORIDE [4]: 99 MEQ/L; CHOLESTEROL [4]: 42 mg/dL; CREATINE PHOSPHOKINASE [4]: 164 u/L; CREATININE [4]: 0.2 mg/dL; GLUCOSE [4]: 173.33 mg/dL; PHOSPHORUS [4]: 12.6 mg/dL; POTASSIUM [4]: 7.33 MEQ/L; SODIUM [4]: 147 MEQ/L; TOTAL BILIRUBIN [4]: 0.33 mg/dL; TOTAL PROTEIN [4]: 6.1 G/DL; ABSOLUTE BASOPHIL [5]: 36.7 cells/µL; BASOPHIL [5]: 0.27%; EOSINOPHIL [5]: 0.43%; ERYTHROCYTE COUNT [5]: 7 x10E6/uL; HEMATOCRIT [5]: 42.77%; HEMOGLOBIN [5]: 14.3 G/DL; LEUKOCYTE COUNT [5]: 13.01 x10E3/uL; LYMPHOCYTE [5]: 77.23%; MEAN CORPUSCULAR HEMOGLOBIN [5]: 20.43 pg; MEAN CORPUSCULAR HEMOGLOBIN CONCENTRATION [5]: 33.43 G/DL; MEAN CORPUSCULAR VOLUME [5]: 61.2 fL; MONOCYTE [5]: 2.47%; NEUTROPHIL [5]: 18%; PLATELET COUNT [5]: 1291 x10E3/uL; ALANINE AMINOTRANSFERASE [5]: 42.67 u/L; ALBUMIN [5]: 3.6 G/DL; ALKALINE PHOSPHATASE [5]: 336.67 u/L; ASPARTATE AMINOTRANSFERASE [5]: 63.33 u/L; BLOOD UREA NITROGEN [5]: 11.33 mg/dL; CHLORIDE [5]: 102.33 MEQ/L; CHOLESTEROL [5]: 36.33 mg/dL; CREATINE PHOSPHOKINASE [5]: 193 u/L; CREATININE [5]: 0.4 mg/dL; GLUCOSE [5]: 166 mg/dL; PHOSPHORUS [5]: 11.2 mg/dL; POTASSIUM [5]: 6.37 MEQ/L; SODIUM [5]: 145.67 MEQ/L; TOTAL BILIRUBIN [5]: 0.63 mg/dL; TOTAL PROTEIN [5]: 5.87 G/DL; ABSOLUTE BASOPHIL [6]: 200 cells/µL; BASOPHIL [6]: 1.57%; EOSINOPHIL [6]: 0.97%; ERYTHROCYTE COUNT [6]: 8.29 x10E6/uL; HEMATOCRIT [6]: 52.23%; HEMOGLOBIN [6]: 16.3 G/DL; LEUKOCYTE COUNT [6]: 13.36 x10E3/uL; LYMPHOCYTE [6]: 79.5%; MEAN CORPUSCULAR HEMOGLOBIN [6]: 19.77 pg; MEAN CORPUSCULAR HEMOGLOBIN CONCENTRATION [6]: 31.27 G/DL; MEAN CORPUSCULAR VOLUME [6]: 63.17 fL; MONOCYTE [6]: 1.77%; NEUTROPHIL [6]: 14.97%; PLATELET COUNT [6]: 1359.67 x10E3/uL; ALANINE AMINOTRANSFERASE [6]: 31 u/L; ALBUMIN [6]: 4.13 G/DL; ALKALINE PHOSPHATASE [6]: 287.67 u/L; ASPARTATE AMINOTRANSFERASE [6]: 54.67 u/L; BLOOD UREA NITROGEN [6]: 14 mg/dL; CHLORIDE [6]: 104.33 MEQ/L; CHOLESTEROL [6]: 60 mg/dL; CREATINE PHOSPHOKINASE [6]: 166 u/L; CREATININE [6]: 0.37 mg/dL; GLUCOSE [6]: 151.33 mg/dL; PHOSPHORUS [6]: 11.3 mg/dL; POTASSIUM [6]: 7 MEQ/L; SODIUM [6]: 155 MEQ/L; TOTAL BILIRUBIN [6]: 0.4 mg/dL; TOTAL PROTEIN [6]: 7.07 G/DL
